Experimental data taken from ChEMBL document CHEMBL3758171 (Bioorg Med Chem, 2016).

Columns and labels:
Carbonic anhydrase 12 = Carbonic anhydrase 12 (Homo sapiens, UniProt O43570); assay: Inhibition of human recombinant carbonic anhydrase 12 preincubated for 15 mins by stopped flow CO2 hydration assay
Carbonic anhydrase 1 = Carbonic anhydrase 1 (Homo sapiens, UniProt P00915); assay: Inhibition of human recombinant carbonic anhydrase 1 preincubated for 15 mins by stopped flow CO2 hydration assay
Carbonic anhydrase 2 = Carbonic anhydrase 2 (Homo sapiens, UniProt P00918); assay: Inhibition of human recombinant carbonic anhydrase 2 preincubated for 15 mins by stopped flow CO2 hydration assay
Carbonic anhydrase 9 = Carbonic anhydrase 9 (Homo sapiens, UniProt Q16790)

Chain of Carbonic anhydrase 1 (P00915 whole entry): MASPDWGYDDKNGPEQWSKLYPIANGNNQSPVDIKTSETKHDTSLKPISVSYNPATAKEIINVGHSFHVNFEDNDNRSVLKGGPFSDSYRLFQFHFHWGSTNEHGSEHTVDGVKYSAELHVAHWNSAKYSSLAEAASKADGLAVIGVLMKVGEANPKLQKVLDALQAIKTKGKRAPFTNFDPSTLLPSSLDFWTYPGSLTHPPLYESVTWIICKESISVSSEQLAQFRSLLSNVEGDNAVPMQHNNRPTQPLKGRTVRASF
Chain of Carbonic anhydrase 12 (O43570 whole entry): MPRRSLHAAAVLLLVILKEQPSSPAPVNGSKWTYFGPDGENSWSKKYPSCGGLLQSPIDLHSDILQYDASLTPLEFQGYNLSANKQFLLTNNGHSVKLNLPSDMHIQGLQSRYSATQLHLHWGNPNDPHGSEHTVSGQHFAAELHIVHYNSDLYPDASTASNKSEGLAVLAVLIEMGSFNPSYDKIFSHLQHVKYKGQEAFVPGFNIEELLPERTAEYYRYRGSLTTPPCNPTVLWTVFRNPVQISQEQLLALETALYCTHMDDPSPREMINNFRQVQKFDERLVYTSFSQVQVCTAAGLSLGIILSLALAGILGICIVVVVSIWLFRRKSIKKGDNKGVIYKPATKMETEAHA

Structure (SMILES)	Ki (Carbonic anhydrase 12) [nM]	Ki (Carbonic anhydrase 1) [nM]	Ki (Carbonic anhydrase 2) [nM]	Ki (Carbonic anhydrase 9) [nM]
O=C1NCc2ccccc21	4.1	> 10000	> 10000	174
CC1=CC(=O)N(Cc2ccc(F)cc2)S(=O)(=O)O1	4.9	> 10000	> 10000	261
O=C1c2ccccc2S(=O)(=O)N1Cc1cccc(C(F)(F)F)c1	17	> 10000	> 10000	19
CC1=CC(OCC(=O)c2ccc(Br)cc2)=NS(=O)(=O)O1	3.6		> 10000	196
CC1=CC(=O)N(CC(=O)c2ccc(-c3ccccc3)cc2)S(=O)(=O)O1	4	> 10000	> 10000	26
CC1=CC(OCC(=O)c2ccc(Cl)cc2Cl)=NS(=O)(=O)O1	5.5	> 10000	> 10000	265
CC1=CC(=O)N(Cc2ccc(Cl)cc2)S(=O)(=O)O1	4.5	> 10000	> 10000	239
CC1=CC(=O)N(Cc2ccc([N+](=O)[O-])cc2)S(=O)(=O)O1	4.3	> 10000	> 10000	210
CC1=CC(=O)N(CC(=O)c2ccc([N+](=O)[O-])cc2)S(=O)(=O)O1	3.9		1750	2480
COc1cccc(C(=O)CN2C(=O)C=C(C)OS2(=O)=O)c1	5.6	> 10000	> 10000	
CC1=CC(=O)N(CC(=O)c2ccc(C#N)cc2)S(=O)(=O)O1	4.1		140	27
O=C1c2ccccc2S(=O)(=O)N1Sc1ccccc1[N+](=O)[O-]	4	> 10000	> 10000	18

Further lines, results first:

Ki (Carbonic anhydrase 12) [nM]	Ki (Carbonic anhydrase 1) [nM]	Ki (Carbonic anhydrase 2) [nM]	Ki (Carbonic anhydrase 9) [nM]	Structure (SMILES)
6		> 10000	1570	COc1cccc(C(=O)CN2C(=O)c3ccccc3S2(=O)=O)c1
4.4		> 10000	19	O=C1c2ccccc2S(=O)(=O)N1Cc1ccc(Cl)cc1
26		> 10000	184	Cc1cccc(CN2C(=O)c3ccccc3S2(=O)=O)c1
41		> 10000	539	O=C1c2ccccc2S(=O)(=O)N1Cc1ccc(F)cc1
	110000	78000		O=C(O)CN1C(=O)c2ccccc2S1(=O)=O
4.7		> 10000	51	O=C1c2ccccc2S(=O)(=O)N1Cc1ccc(C(F)(F)F)cc1
16	1370	> 10000	221	Cc1ccccc1CN1C(=O)c2ccccc2S1(=O)=O
15		> 10000	616	O=C1c2ccccc2S(=O)(=O)N1Cc1ccccc1C(F)(F)F
4.3	> 10000	> 10000	223	O=C(O)CN1C(=O)c2ccccc2C1=O
5.1	> 10000	> 10000	234	Cc1ccc(CN2C(=O)c3ccccc3S2(=O)=O)cc1
4.3	> 10000	> 10000	22	O=C1c2ccccc2S(=O)(=O)N1Cc1ccc(Br)cc1
29		> 10000	1170	O=C1c2ccccc2S(=O)(=O)N1Cc1ccc([N+](=O)[O-])cc1
3.9	1480	> 10000	191	O=C(CN1C(=O)c2ccccc2S1(=O)=O)c1ccc(Cl)cc1Cl
41	1110	> 10000	23	O=C(CN1C(=O)c2ccccc2S1(=O)=O)c1ccc(F)cc1
